Test results as given in patent US20120046357A1, “Benzamide and Napthamide Derivatives Inhibiting Nuclear Factor-Kappa (B) - (NK-kB)” (Profectus Biosciences, Inc., priority 2009, published 2012).
Where a name gives a salt, the structure may show the parent alone. Read-outs that look alike come from different tables or passages of the source.

Legend:
[1] = system: NF-κB; test: NF-κB/293/GFP reporter cell assay (TNF-α induced GFP expression); format: cell-based; conditions: for EC50: pTRH1-NF-κB-dscGFP reporter, 2 h pretreatment, 20 ng/ml TNF-α 18 h, read-out: NF-KB/293/GFP EC50
Protocol: Two reporter cell assays were used to determine the ability of the compound of Example 10 to inhibit NF-κB driven transcription. The first assay was a 293-cell based assay with a stably integrated pNF-κB-luc reporter plasmid containing 3 NF-κB promoter elements. The second assay was a 293-cell based assay with a stably integrated pTRH1-NF-κB-dscGFP reporter containing 4 NF-κB promoter elements. Cells were treated with 0, 0.2, 1, 10, 20 and 40 μM of the compound of Example 10 for 2 hours then were induced with 20 ng/ml TNF-α for 18 hours. Following the induction, luminescence or fluorescence was quantified using a Beckman-Coulter 2300 plate reader. […] These values represent the median value generated from three independent experiments. As a control, 0.5% DMSO treated and untreated cells were compared to verify that the compound of Example 10 had no effect on the expression of luciferase or in the readout of the assay. There was a slight decrease in the output from the assay in the DMSO treated population although it was not statistically significant. As a result of the controls, the decrease in activity in the drug treated samples was compared to the DMSO control sample.

[2] = system: IL-6 release from RAW264.7 cells; test: LPS-stimulated IL-6 release from RAW264.7 cells (ELISA); format: cell-based, mouse; conditions: 2 h pretreatment, 1 μg/mL LPS 20-24 h, read-out: RAW 264.7 IL-6 release EC50
Protocol: RAW 264.7 cells were seeded at 4×10^4 cells per well n complete growth medium in 96 well white TC plates with clear bottoms one day prior to the assay. The next day the cells were washed once and 100 μL fresh growth media was added. Cells were pretreated with 0.5 μL from a 6 point 200× dilution series of the test compounds in DMSO for 2 hours. Following pretreatment with the drugs, the inflammatory response was induced by adding 5 μL of a 20 μg/mL solution of LPS (Sigma). The cells were incubated in the presence of the drugs and 1 μg/mL LPS for another 20-24 hours. Typically after treatment the total DMSO was […] of the culture volume and the final concentrations of the compounds were approximately: 40, 20, 10, 1, 0.2 and 0 μM depending on the MW of each compound. Modified dilution series were prepared as needed to get adequate dose response curves without changing the % DMSO. Samples were run in duplicate or triplicate and included DMSO treated control wells with and without LPS stimulation. Drugs with a known activity such as Parthenolide or DHMEQ were run as experimental controls. After 20-24 hours LPS activation, the media supernatant was collected from the cells and replaced with fresh media. The supernatant samples were cleared by centrifugation at 1,000×g for 5 minutes, transferred to fresh storage plates, and stored frozen at −30° C.
After determining the appropriate supernatant dilutions experimentally, mIL-6 levels in the supernatants were quantified using Quantikine™ mouse IL-6 immunoassay (R&D Systems) according to the manufacturer's protocol. […] diluted in Calibrator Diluent were added to 50 μL of Assay Diluent in microplate wells pre-coated with an anti-mouse IL-6 capture antibody. Controls included a calibrated positive IL-6 control sample, non-specific binding (NSB) wells containing Calibrator Diluent but no IL-6, and a recombinant mouse IL-6 standard dilution series (10-1000 pg/mL). The plates were incubated at room temperature for 2 hours with shaking and then washed 5 times with 400 μL 1× Wash Buffer. […] anti-mouse IL-6 antibody was added to each well to detect IL-6 captured on the plate. The plates were incubated at room temperature for 2 hours and then washed 5 times with 400 μL 1× Wash Buffer. Equal volumes of Color Reagents A and B were mixed and 100 μL of this HRP Substrate Solution was added to each well on the plate. The blue color was allowed to develop for 30 minutes and then the reaction was stopped using 100 μL of Stop Solution yielding a yellow color. Absorbance at 450 nm with a reference wavelength subtracted at 595 nm was recorded using a Becton-Dickinson DTX 880 Multimode Detector.
The concentration of mIL-6 in the unknown samples was determined from a curve-fit of the mIL-6 standard absorbance data and multiplying by the dilution factor. The maximum activity achieved in the absence of the inhibitor (DMSO+LPS treated wells) was arbitrarily given a value of 100%; likewise the minimum activity in the absence of the stimulant (no LPS) was assigned a value of 0%. Inhibition of the amount of mIL-6 cytokine released in the drug treated wells was calculated relative to the maximum activation in the DMSO+LPS treated control wells (ie. % inhibition=100−(drug+LPS treated)/(DMSO+LPS treated)). Dose response curves were used to determine the effective concentration to inhibit 50% of the mIL-6 cytokine released (IC50) by means of a SigmaPlot macro which fits a sigmoidal dose-response curve to the (log 10) μM concentration versus % inhibition. […] This technique yields an objective value for the IC50 provided that 50% inhibition was approached at the concentrations tested. FIG. 5 illustrates the effect of the compound of Example 10 on inhibiting IL-6 release.

[3] = Homo sapiens, HEK293, 293 cells
[4] = Mus musculus, RAW264.7, RAW264.7 cells

Compound | EC50 [1, 3] [µM] | EC50 [2, 4] [µM] | IC50 ([1]; Homo sapiens, HEK293, median of three independent experiments, 293 cells, 20 ng/ml TNF-α, read-out: median IC50, inhibition of expression of the Green fluorescent protein gene) [µM] | EC50 ([1]; 293 cells, trifluoroacetate) [µM] | EC50 ([2]; RAW264.7 cells, trifluoroacetate) [µM]
O=C(NC1=CC(=O)C2OC2C1O)c1ccc(C(F)(F)F)cc1O (racemic) [Example 1, 2-hydroxy-N-(2-hydroxy-5-oxo-7-oxabicyclo[4.1.0]hept-3-en-3-yl)-4-(trifluoromethyl)benzamide] | 3.4 | 3.1 | – | – | –
O=C(NC1=CC(=O)C2OC2C1O)c1ccc(Cl)cc1O (racemic) [Example 2, (±)-4-chloro-2-hydroxy-N-(2-hydroxy-5-oxo-7-oxabicyclo[4.1.0]hept-3-en-3-yl)benzamide] | 7 | 1.3 | – | – | –
Cc1ccc(C(=O)NC2=CC(=O)C3OC3C2O)c(O)c1 (racemic) [Example 3, (±)-2-hydroxy-N-(2-hydroxy-5-oxo-7-oxabicyclo[4.1.0]hept-3-en-3-yl)-4-methylbenzamide] | 9 | 0.48 | – | – | –
Cc1cccc(C(=O)NC2=CC(=O)C3OC3C2O)c1O (racemic) [Example 4, (±)-2-hydroxy-N-(2-hydroxy-5-oxo-7-oxabicyclo[4.1.0]hept-3-en-3-yl)-3-methylbenzamide] | 18 | 0.76 | – | – | –
COc1ccc(C(=O)NC2=CC(=O)C3OC3C2O)c(O)c1 (racemic) [Example 5, (±)-2-hydroxy-N-(2-hydroxy-5-oxo-7-oxabicyclo[4.1.0]hept-3-en-3-yl)-4-methoxybenzamide] | 6.1 | 0.42 | – | – | –
O=C(NC1=CC(=O)C2OC2C1O)c1cccc(Cl)c1O (racemic) [Example 6, (±)-3-chloro-2-hydroxy-N-(2-hydroxy-5-oxo-7-oxabicyclo[4.1.0]hept-3-en-3-yl)benzamide] | 14 | 2.5 | – | – | –
O=C(NC1=CC(=O)C2OC2C1O)c1cc2ccccc2cc1O (racemic) [Example 7, (±)-3-hydroxy-N-(2-hydroxy-5-oxo-7-oxabicyclo[4.1.0]hept-3-en-3-yl)-2-naphthamide] | 4.7 | 1.4 | – | – | –
O=C(NC1=CC(=O)C2OC2C1O)c1ccc2ccccc2c1O (racemic) [Example 8, (±)-1-hydroxy-N-(2-hydroxy-5-oxo-7-oxabicyclo[4.1.0]hept-3-en-3-yl)-2-naphthamide] | 7.1 | 0.3 | – | – | –
O=C(NC1=CC(=O)C2OC2C1O)c1cc(Br)ccc1O (racemic) [Example 9, (±)-5-bromo-2-hydroxy-N-(2-hydroxy-5-oxo-7-oxabicyclo[4.1.0]hept-3-en-3-yl)benzamide] | 5.2 | 6.5 | – | – | –
CN(C)c1ccc(C(=O)NC2=CC(=O)C3OC3C2O)c(O)c1 (racemic) [Example 10, (±)-4-(dimethylamino)-2-hydroxy-N-(2-hydroxy-5-oxo-7-oxabicyclo[4.1.0]hept-3-en-3-yl)benzamide] | 2.5 | 0.44 | 2.5 | – | –
COc1ccc2cc(O)c(C(=O)NC3=CC(=O)C4OC4C3O)cc2c1 (racemic) [Example 11, (±)-3-hydroxy-N-(2-hydroxy-5-oxo-7-oxabicyclo[4.1.0]hept-3-en-3-yl)-7-methoxy-2-naphthamide] | 5 | 0.85 | – | – | –
O=C(NC1=CC(=O)C2OC2C1O)c1cc2cc(Br)ccc2cc1O (racemic) [Example 15, (±)-7-bromo-3-hydroxy-N-(2-hydroxy-5-oxo-7-oxabicyclo[4.1.0]hept-3-en-3-yl)-2-naphthamide] | 2.4 | 0.22 | – | – | –
COc1c(C(=O)NC2=CC(=O)C3OC3C2O)ccc(F)c1F (racemic) [Example 16, (±)-3,4-difluoro-N-(2-hydroxy-5-oxo-7-oxabicyclo[4.1.0]hept-3-en-3-yl)-2-methoxybenzamide] | 2.6 | 0.27 | – | – | –
Cc1ccc(C(C)C)c(C(=O)NC2=CC(=O)C3OC3C2O)c1O (racemic) [Example 17, (±)-2-hydroxy-N-(2-hydroxy-5-oxo-7-oxabicyclo[4.1.0]hept-3-en-3-yl)-6-isopropyl-3-methylbenzamide] | 6.7 | 0.48 | – | – | –
CN(C)c1ccc(C(=O)NC2=CC(=O)C3OC3C2O)c(O)c1 (racemic) [Example 19, (±)-4-(dimethylamino)-2-hydroxy-N-(2-hydroxy-5-oxo-7-oxabicyclo[4.1.0]hept-3-en-3-yl)benzamide trifluoroacetate] | – | – | – | 1.7 | 0.74
COc1cc(N(C)C)ccc1C(=O)NC1=CC(=O)C2OC2C1O (racemic) [Example 20, (±)-4-(dimethylamino)-N-(2-hydroxy-5-oxo-7-oxabicyclo[4.1.0]hept-3-en-3-yl)-2-methoxybenzamide] | 1.3 | 0.24 | – | – | –
